Experimental data: ChEMBL document CHEMBL1201862, “PubChem BioAssay data set” (2004)
Activity calls are given as the source filed them.

Legend:
[1] = molecular target: Sphingosine 1-phosphate receptor 2 (Homo sapiens, UniProt O95136); experiment: Dose Response Cell Based Assay for Antagonists of the S1P2 Receptor. [Related pubchem assays: 856, 736 ]; assay type: functional
[2] = HEK-293T cell viability reduction – luminescence, B-cell screen hits, cytotoxicity control for BCR NF-kB inhibitor project, dose response (AID 489021); assay type: functional, cell-based;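 also: HEK-293T cells carrying an NF-kB luciferase reporter; cells exposed to compound for about 14 hours before viability readout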
[3] = Luminescence Cell-Based Dose Confirmation HTS to Identify Inhibitors of Polyadenylation.; assay type: functional
Estrogen receptor = molecular target: T1, Estrogen receptor (Homo sapiens, UniProt P03372);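 also: potency for inhibiting coactivator peptide recruitment to the receptor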
T1 sequence (P03372 whole entry): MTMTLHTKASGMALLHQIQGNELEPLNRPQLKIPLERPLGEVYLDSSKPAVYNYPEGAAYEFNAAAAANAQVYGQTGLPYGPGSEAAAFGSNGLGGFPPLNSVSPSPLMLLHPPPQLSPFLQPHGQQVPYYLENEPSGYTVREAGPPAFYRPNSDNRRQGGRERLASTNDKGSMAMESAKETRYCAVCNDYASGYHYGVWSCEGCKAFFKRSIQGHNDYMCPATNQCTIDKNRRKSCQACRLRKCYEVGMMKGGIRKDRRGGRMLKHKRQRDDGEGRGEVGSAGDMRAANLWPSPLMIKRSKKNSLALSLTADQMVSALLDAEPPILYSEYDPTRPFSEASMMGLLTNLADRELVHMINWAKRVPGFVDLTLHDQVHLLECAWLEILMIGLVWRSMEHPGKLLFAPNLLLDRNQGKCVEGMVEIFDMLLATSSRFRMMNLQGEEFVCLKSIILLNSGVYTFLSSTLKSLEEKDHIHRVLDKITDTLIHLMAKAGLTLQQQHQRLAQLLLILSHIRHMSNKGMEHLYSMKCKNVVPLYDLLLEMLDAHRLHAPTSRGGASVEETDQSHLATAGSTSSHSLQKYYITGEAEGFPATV

Escherichia coli = experiment: microbe, parasite or virus in culture
[4] = HIV-1 Vif–A3G interaction blockers – biochemical, TR-FRET, GST-Vif 1-94, biotin-A3G peptide, dose response retest, primary screen (AID 1117319); assay type: functional;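 also: TR-FRET signal of purified GST-Vif binding a biotinylated A3G peptide; inhibitors lower the FRET signal by blocking Vif and A3G binding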
[5] = molecular target: T2, Histone-lysine N-methyltransferase NSD2 (Homo sapiens, UniProt O96028); assay type: biochemical
T2 sequence (O96028 whole entry): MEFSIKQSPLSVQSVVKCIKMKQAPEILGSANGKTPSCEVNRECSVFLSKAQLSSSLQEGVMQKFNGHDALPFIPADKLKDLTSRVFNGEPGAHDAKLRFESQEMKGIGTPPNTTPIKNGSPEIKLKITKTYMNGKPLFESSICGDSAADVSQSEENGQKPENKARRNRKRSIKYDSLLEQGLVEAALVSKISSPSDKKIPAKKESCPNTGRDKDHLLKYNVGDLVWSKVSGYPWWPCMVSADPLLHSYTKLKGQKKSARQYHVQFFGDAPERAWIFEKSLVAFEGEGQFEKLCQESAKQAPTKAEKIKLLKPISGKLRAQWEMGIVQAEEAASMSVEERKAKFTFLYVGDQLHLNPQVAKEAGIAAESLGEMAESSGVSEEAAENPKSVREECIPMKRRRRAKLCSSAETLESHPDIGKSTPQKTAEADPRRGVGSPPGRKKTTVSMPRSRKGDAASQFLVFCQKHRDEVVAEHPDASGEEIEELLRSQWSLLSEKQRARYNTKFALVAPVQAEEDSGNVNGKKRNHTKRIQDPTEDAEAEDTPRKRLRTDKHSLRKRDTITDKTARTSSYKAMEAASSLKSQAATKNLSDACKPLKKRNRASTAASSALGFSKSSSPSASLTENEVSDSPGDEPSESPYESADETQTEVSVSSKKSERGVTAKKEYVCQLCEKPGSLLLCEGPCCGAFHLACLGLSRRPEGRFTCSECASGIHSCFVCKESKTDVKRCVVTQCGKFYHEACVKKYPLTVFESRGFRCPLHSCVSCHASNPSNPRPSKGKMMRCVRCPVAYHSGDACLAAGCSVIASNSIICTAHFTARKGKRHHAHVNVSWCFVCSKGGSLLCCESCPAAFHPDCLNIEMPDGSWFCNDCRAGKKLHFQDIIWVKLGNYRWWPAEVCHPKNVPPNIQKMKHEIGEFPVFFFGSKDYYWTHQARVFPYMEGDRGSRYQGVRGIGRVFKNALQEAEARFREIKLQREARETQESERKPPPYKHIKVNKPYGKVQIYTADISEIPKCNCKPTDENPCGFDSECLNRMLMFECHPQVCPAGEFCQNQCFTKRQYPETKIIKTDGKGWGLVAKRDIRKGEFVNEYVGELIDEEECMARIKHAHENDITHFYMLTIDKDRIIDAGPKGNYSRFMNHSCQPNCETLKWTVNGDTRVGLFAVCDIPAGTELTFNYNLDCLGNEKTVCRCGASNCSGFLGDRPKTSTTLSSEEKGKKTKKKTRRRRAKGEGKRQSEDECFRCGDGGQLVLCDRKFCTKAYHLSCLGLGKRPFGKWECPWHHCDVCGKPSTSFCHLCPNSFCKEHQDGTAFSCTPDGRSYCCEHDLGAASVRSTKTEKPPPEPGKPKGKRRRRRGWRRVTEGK

[6] = NIH3T3 cell viability loss – ATP luminescence, mouse fibroblasts, counter-screen, dose response (AID 2010); assay type: functional, cell-based;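 also: cells exposed to compound for about 90 hours before reading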
[7] = Trypanosoma cruzi growth suppression in host cells – NIH3T3 host cells, beta-gal luminescence, confirmation (AID 2044); assay type: functional, cell-based;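 also: intracellular parasites grown in NIH/3T3 mouse fibroblasts as host cells; luminescent beta-galactosidase reporter signal from transgenic T. cruzi replicating inside host cells; inhibitors lower the luminescence signal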
Beta-galactosidase = Beta-galactosidase (Escherichia coli, UniProt Q8VNN2); experiment: detection-enzyme interference by beta-gal modulators – biochemical, E. coli enzyme, set 3, artefact control for CCR6 antagonist project, dose response (AID 504712); assay type: functional
[8] = molecular target: Mitogen-activated protein kinase 10 (Homo sapiens, UniProt P53779); experiment: Dose response biochemical screening assay for inhibitors of c-Jun N-Terminal Kinase 3 (JNK3). [Related pubchem assays: 746 ]
[9] = alpha-synuclein stem-loop luciferase translation blockers – H4 neuroglioma cells, luminescence, confirmation (AID 1988); assay type: functional, cell-based
[10] = Luminescence Cell-Based Dose Response HTS to Identify Inhibitors of 5'UTR Stem-Loop Driven Prion Protein mRNA Translation in H4 Neuroglioblastoma Cells. [Related pubchem assays: 1827 (Project Summary), 1813 (Primary HTS)]; assay type: functional
[11] = luciferase reporter signal suppression in cells – H4 neuroglioma cells, luminescence, dose response (AID 1990); assay type: functional, cell-based
[12] = molecular target: T3, Corticotropin-releasing factor receptor 2/Corticotropin-releasing factor-binding protein (Homo sapiens, UniProt P24387+Q13324); experiment: activators of CRF receptor 2 with binding protein – uHTS hits, confirmation (AID 602473); assay type: functional; details: read-out: EC50_Mean
T3 sequence (Q13324 whole entry): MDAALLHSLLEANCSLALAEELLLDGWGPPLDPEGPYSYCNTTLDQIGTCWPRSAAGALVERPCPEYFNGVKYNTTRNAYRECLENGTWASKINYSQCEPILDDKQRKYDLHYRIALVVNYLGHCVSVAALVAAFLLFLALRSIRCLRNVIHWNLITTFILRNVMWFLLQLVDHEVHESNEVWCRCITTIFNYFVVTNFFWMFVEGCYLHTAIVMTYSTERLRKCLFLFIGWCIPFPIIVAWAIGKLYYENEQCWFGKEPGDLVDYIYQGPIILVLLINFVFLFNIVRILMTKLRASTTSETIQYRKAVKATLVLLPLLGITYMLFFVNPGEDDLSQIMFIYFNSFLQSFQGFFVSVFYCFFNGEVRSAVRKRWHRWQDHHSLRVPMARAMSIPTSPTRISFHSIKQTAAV
T3 sequence (P24387 whole entry): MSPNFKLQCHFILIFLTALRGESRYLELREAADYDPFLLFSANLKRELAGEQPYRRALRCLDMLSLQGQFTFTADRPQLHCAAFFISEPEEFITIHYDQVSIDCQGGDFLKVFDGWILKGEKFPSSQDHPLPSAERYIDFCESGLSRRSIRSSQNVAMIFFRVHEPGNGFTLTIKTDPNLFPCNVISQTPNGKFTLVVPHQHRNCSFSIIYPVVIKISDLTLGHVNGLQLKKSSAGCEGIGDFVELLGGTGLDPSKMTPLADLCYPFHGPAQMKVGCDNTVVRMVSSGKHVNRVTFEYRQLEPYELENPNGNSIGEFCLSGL

[13] = A549 cell cytotoxicity, dose response, cytotoxicity control, plate reader, cherry-pick, antagonist series (AID 743412); assay type: functional, cell-based
[14] = HEK293 Cytotoxicity Assay Measured in Cell-Based System Using Plate Reader - 7071-01_Inhibitor_Dose_CherryPick_Activity_Set2.; assay type: functional
Cryptococcus neoformans = experiment: PubChem AID 686997; assay type: functional, organism-based; details: Cryptococcus neoformans
HEK293 = experiment: viability loss in HEK293T cells – cell-based, ATP luminescence, cherry-pick samples, cytotoxicity control, dose response (AID 687005); assay type: functional; details: Homo sapiens;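 also: cells exposed to compound for 48 hours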
HeLa = experiment: viability loss in HeLa cells – cell-based, ATP luminescence, cherry-pick samples, cytotoxicity control, dose response (AID 687004); assay type: functional; details: Homo sapiens
[15] = molecular target: Voltage-gated N-type calcium channel alpha-1B subunit/Amyloid beta A4 precursor protein-binding family A member 1 (Homo sapiens, UniProt Q00975+Q02410); assay type: protein assay
[16] = molecular target: Disintegrin and metalloproteinase domain-containing protein 17 (Homo sapiens, UniProt P78536); experiment: exosite inhibitors of ADAM17, dose response, biochemical (AID 743260)
[17] = inhibition of ADAM10 peptide cleavage – biochemical, FRET peptide substrate, recombinant human ADAM10, selectivity assay for ADAM17 exosite inhibitor project, dose response (AID 743259);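 also: ADAM10 enzyme cleaving a FRET peptide substrate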
Estrogen receptor beta = Estrogen receptor beta (Homo sapiens, UniProt Q92731); experiment: blockers of SRC-3 recruitment to ERβ – biochemical, ELISA, streptavidin-HRP readout, orthogonal assay, confirmation (AID 1060)
[18] = molecular target: T4, Dual specificity protein phosphatase 6 (Rattus norvegicus, UniProt Q64346); experiment: inhibition of rat DUSP6 enzyme activity – biochemical, in vitro, primary screen (AID 425)
T4 sequence (Q64346 whole entry): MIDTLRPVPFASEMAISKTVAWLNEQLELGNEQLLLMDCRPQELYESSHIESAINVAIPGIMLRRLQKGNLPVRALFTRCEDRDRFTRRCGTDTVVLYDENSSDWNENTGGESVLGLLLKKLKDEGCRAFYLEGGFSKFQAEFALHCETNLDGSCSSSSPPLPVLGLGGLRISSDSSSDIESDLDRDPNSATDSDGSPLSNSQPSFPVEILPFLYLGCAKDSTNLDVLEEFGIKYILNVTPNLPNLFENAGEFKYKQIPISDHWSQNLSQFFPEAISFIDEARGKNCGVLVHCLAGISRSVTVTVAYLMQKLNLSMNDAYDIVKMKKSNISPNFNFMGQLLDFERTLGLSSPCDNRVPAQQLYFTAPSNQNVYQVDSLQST

Sequence of Sphingosine 1-phosphate receptor 2 (O95136 whole entry): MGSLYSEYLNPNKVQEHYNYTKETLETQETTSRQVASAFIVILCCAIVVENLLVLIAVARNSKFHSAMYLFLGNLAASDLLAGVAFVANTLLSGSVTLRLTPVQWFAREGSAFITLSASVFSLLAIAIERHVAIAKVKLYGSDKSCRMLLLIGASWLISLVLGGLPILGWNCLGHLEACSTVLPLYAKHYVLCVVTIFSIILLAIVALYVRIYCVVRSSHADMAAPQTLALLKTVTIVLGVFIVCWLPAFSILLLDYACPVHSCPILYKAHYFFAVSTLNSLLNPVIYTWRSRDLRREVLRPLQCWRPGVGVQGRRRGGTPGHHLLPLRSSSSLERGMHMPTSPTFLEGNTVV
Sequence of Mitogen-activated protein kinase 10 (P53779 whole entry): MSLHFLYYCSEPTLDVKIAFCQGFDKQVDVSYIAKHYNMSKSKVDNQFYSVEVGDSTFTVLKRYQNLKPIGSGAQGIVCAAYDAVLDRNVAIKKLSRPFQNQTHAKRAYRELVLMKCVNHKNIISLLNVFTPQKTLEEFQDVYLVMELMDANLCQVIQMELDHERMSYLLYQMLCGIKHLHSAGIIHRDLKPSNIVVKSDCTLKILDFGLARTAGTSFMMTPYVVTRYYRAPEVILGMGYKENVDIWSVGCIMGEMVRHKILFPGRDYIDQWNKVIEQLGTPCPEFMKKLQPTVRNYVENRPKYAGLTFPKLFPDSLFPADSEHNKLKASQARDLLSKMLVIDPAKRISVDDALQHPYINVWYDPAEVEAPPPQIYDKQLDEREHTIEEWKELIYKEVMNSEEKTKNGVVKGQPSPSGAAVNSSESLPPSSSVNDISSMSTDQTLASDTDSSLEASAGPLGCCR
Sequence of Beta-galactosidase (Q8VNN2 whole entry): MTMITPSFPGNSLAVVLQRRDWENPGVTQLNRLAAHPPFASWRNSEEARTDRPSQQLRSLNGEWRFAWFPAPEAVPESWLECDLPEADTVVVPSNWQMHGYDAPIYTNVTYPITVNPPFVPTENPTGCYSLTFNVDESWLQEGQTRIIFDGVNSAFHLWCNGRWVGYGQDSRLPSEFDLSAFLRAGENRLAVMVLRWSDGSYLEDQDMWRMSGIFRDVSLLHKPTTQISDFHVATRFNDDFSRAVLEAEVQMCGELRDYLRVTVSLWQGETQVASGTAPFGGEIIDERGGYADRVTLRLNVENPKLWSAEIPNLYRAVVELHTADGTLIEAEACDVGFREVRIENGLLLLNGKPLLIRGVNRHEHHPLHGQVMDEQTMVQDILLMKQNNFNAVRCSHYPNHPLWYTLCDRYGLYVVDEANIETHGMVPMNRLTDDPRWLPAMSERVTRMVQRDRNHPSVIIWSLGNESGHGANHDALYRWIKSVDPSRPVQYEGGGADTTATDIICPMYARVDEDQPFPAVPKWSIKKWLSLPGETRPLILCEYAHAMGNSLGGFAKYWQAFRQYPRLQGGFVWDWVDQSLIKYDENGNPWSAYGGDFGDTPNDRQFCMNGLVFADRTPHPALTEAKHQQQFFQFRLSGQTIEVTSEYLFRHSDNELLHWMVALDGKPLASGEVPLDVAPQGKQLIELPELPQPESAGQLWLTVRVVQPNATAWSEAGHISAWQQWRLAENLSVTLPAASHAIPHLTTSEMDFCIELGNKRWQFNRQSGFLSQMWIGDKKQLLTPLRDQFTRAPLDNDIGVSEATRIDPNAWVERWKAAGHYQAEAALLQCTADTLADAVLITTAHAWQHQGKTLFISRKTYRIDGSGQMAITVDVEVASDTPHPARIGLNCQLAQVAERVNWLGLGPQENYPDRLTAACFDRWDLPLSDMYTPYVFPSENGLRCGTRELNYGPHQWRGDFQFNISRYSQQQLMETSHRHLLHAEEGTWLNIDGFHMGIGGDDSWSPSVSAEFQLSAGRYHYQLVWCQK
Sequence of Disintegrin and metalloproteinase domain-containing protein 17 (P78536 whole entry, the tested form may be a part): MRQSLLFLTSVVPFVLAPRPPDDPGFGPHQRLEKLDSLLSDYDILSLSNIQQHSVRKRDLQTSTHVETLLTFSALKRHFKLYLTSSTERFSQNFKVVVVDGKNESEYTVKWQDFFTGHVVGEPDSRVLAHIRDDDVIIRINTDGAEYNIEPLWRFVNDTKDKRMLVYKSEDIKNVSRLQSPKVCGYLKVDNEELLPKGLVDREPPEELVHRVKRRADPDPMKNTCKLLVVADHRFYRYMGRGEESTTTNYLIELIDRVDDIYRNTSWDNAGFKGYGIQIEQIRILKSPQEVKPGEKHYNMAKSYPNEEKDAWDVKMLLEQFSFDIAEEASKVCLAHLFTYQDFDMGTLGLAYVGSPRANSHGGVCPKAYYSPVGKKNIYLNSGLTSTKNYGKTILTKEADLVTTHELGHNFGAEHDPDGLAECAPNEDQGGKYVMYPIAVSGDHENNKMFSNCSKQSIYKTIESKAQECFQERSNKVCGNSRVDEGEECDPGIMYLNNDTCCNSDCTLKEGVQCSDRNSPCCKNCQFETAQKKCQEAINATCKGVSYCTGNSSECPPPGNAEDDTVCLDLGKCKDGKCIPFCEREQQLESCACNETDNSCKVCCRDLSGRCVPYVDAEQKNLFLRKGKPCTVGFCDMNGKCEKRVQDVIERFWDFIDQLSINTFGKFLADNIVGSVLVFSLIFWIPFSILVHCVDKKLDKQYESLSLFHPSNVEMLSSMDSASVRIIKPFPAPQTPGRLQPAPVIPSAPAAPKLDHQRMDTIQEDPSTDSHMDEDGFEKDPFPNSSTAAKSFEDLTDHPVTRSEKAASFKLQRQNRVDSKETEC
Sequence of Estrogen receptor beta (Q92731 whole entry): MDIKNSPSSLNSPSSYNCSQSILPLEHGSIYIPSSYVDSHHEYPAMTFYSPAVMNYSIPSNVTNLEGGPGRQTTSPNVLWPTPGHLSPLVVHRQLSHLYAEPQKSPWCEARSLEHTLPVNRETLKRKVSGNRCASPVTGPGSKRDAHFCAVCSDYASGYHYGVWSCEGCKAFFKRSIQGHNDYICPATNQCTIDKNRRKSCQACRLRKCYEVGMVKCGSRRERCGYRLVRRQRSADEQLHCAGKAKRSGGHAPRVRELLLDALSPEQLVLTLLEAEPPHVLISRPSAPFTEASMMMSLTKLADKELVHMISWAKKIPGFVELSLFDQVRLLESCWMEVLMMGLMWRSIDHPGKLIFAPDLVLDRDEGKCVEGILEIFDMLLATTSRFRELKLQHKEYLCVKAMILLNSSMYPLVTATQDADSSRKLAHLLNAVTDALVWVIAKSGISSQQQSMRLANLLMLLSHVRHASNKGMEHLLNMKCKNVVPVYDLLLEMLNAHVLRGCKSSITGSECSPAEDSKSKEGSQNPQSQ

## Cc1ccsc1C(=O)Nc1ccc(F)cc1
[1]
  IC50: > 30 µM (not active)

## CCC(C)[C@H](N)c1nnc(SCC(=O)c2ccc(Cl)cc2)o1 (some centres not stated)
[2]
  IC50: > 80 µM (inactive)

## O=C1c2cnc3nc(SCc4ccccc4)nn3c2CC2c3ccccc3CCN12 (configuration not stated)
[3]
  EC50: > 120 µM (not active)

## Cc1ccc(NC(=O)/C(=C/c2cccc([N+](=O)[O-])c2)NC(=O)C2CCCCC2)c(C)c1
Estrogen receptor
  IC50: > 50 µM (not active)
Escherichia coli
  AC50: 62.4 µM (active)
[3]
  EC50: > 120 µM (not active)

## FC(F)(F)c1cnc2c(-c3cccs3)csc2c1
[1]
  IC50: > 30 µM (not active)

## Cc1ccc(S(=O)(=O)CCC(=O)Nc2ccc3c(c2)OCO3)cc1
[4]
  IC50: > 100 µM (active)

## CCN(CC)c1ccc(C2C3CCCCC3(O)CCN2CC(=O)Nc2ccccc2)cc1 (configuration not stated)
[4]
  IC50: > 100 µM (active)

## O=C(Nc1cccc(Oc2ccc3c(c2)C(=O)NC3=O)c1)c1cccs1
[2]
  IC50: > 80 µM (inactive)

## CCN1CCCC1CNc1[nH]cnc2c3cc(F)ccc3nc1-2 (configuration not stated)
[5]
  AC50: > 20 µM (inactive)

## O=C1c2cccc3c([N+](=O)[O-])ccc(c23)C(=O)N1Cc1cccnc1
[6]
  EC50: 9.5 µM (active)
[7]
  EC50: 3.67 µM (active)
Beta-galactosidase
  IC50: 16.8 µM (active)

## CCCc1nc(SCC(=O)N2CCCC2)c2ccccc2n1
[8]
  IC50: 50.4 µM (not active)

## COc1ccccc1NC(=O)COc1ccc(CO)cc1Cl
[8]
  IC50: 68.6 µM (not active)

## O=C(Oc1coc(CSc2ncccn2)cc1=O)c1ccc(Br)o1
[3]
  EC50: > 120 µM (not active)

## Cc1cc(C)cc(NC(=O)c2nnn(Cc3cc(C)ccc3C)c2N)c1
[9]
  EC50: 18.2 µM (active)
[2]
  IC50: > 80 µM (inactive)
[10]
  EC50: 39.8 µM (active)
[11]
  EC50: 13.6 µM (active)
[12]
  EC50: 8.37 µM (active)

## O=C(Nc1ccc(F)cc1)c1cc(-c2cccs2)nc2ccccc12
[1]
  IC50: > 30 µM (not active)

## COC(=O)C1=C(C(=O)OC)C(C(=O)OC)C(C(=O)OC)C(C(=O)OC)(C(=O)OC)C(C(=O)OC)=C1C(=O)OC (configuration not stated)
Beta-galactosidase
  IC50: > 66.6 µM (inactive)

## C[C@H](CO)N1C[C@H](C)[C@@H](CN(C)C(=O)Nc2ccc3c(c2)OCO3)Oc2c(cccc2N(C)C)C1=O
[13]
  AC50: > 52 µM (inactive)

## COC(=O)C1=C(C)N(Cc2ccccc2)C(=S)NC1c1cccc(Br)c1 (configuration not stated)
[14]
  AC50: 33.6 µM (active)
Cryptococcus neoformans
  AC50: 36.5 µM (active)
HEK293
  AC50: 33.6 µM (active)

## O=C(Nc1ccccc1)N1CCCCN2[C@H](CO)[C@@H](c3ccc(C#CC4CC4)cc3)[C@@H]2C1
[14]
  AC50: 14.4 µM (active)
HeLa
  AC50: > 52 µM (inactive)
HEK293
  AC50: 14.4 µM (active)

## O=C(N/N=C/c1ccc([N+](=O)[O-])cc1)c1cc(-c2ccc3c(c2)OCO3)[nH]n1
[15]
  IC50: 7.27 µM (active)

## CC1CN(S(=O)(=O)c2ccc(NC(=O)c3cc(-c4ccccc4O)n[nH]3)cc2)CC(C)O1 (configuration not stated)
[16]
  IC50: > 69.5 µM (inactive)
[17]
  IC50: > 69.5 µM (inactive)

## O=C(O)C(O)c1ccco1 (configuration not stated)
Estrogen receptor
  IC50: > 50 µM (not active)
Estrogen receptor beta
  IC50: 3.23 µM (not active)
[18]
  IC50: 3.73 µM (active)
